# Test results published in paper PMC12254338 (Scientific Reports, 2025).
# No end group written: not given here.
# Target: T1, Vps4p^∆N (lacks the MIT domain and linker; residues 101–437) (Saccharomyces cerevisiae, UniProt P52917)
# T1 sequence (P52917 101-437): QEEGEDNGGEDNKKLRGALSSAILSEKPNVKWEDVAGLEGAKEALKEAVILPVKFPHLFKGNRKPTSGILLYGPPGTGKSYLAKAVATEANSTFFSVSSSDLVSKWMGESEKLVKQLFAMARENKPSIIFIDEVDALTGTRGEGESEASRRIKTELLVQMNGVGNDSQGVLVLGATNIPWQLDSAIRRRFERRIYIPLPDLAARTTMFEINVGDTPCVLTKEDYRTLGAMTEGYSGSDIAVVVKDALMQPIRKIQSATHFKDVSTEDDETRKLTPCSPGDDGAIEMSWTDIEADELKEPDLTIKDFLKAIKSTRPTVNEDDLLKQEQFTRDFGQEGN
# T1 sequence (Q06263 280-330 partner limits assumed): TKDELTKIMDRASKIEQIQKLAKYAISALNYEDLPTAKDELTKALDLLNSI
# Assay: Fluorescence polarization peptide binding assay to Vps4p^∆N
# Parameters: species or system S. cerevisiae
# Conditions: ratio of affinities
substance,measurement,value
EKEKEKEK-NH2 [(EK)4],Fold tighter binding than (KE)4,6 fold
